Experimental data reported in patent US8586573B2, “N-(Aminoheteroaryl)-1H-indole-2-carboxamide derivatives, and preparation and therapeutic application thereof” (Sanofi, priority 2006, dated 2013).

Assays:
TRPV1 receptor = target: T1, TRPV1 receptor (Rattus norvegicus, UniProt O35433); assay: Inhibition of the current induced by capsaicin on rat DRGs (whole-cell patch-clamp); type: cell-based; details: DRG neuron, inhibition of control capsaicin (1 microM) response, newborn rat DRG neurons; for inhibition at 0.001 µM: compound at 1 nM; for inhibition at 0.01 µM: compound at 10 nM
T1 construct: The neurons of the DRG naturally express the TRPV1 receptor; endogenous in cells; host or cells: primary culture of newborn rat dorsal root ganglion neurons
Method: Test for Inhibition of the Current Induced by Capsaicin on Rat DRGs
• Primary culture of rat dorsal root ganglion (DRG) cells:
The neurons of the DRG naturally express the TRPV1 receptor.
Newborn rat DRG primary cultures are prepared from one-day-old rat pups. Briefly, after dissection, the ganglia are trypsinized and the cells are mechanically dissociated by controlled trituration. The cells are resuspended in an Eagle's basal culture medium containing 10% of foetal calf serum, 25 mM KCl, 2 mM glutamine, 100 μg/ml gentamycin and 50 ng/ml of NGF, and then deposited onto laminin-coated glass cover slips (0.25×10^6 cells per cover slip) which are then placed in 12-well Corning dishes. The cells are incubated at 37° C. in a humidified atmosphere containing 5% CO2 and 95% air. Cytosine β-D-arabinoside (1 μM) is added 48 h after placing in culture, in order to prevent the development of non-neuronal cells. The cover slips are transferred into the experimental chambers for the patch-clamp studies after 7-10 days of culture. • Electrophysiology:
The measuring chambers (volume 800 μl) containing the cell preparation are placed on the platform of an inverted microscope (Olympus IMT2) equipped with Hoffman optics (Modulation Contrast, New York) and observed at the magnification of ×400. The chambers are continually perfused by gravity (2.5 ml/min) by means of a solution distributing device with 8 inlets, and the sole outlet of which, consisting of a polyethylene tube (500 μm aperture), is placed at least 3 mm from the cell studied. The “whole cell” configuration of the patch-clamp technique was used. The borosilicate glass pipettes (resistance 5-10 MOhms) are moved close to the cell by means of a 3D piezoelectric micromanipulator (Burleigh, PC1000). The overall currents (membrane potential fixed at −60 mV) are recorded with an Axopatch 1D amplifier (Axon Instruments, Foster city, Calif.), connected to a PC control by Pclamp8 software (Axon Instrument). The current traces are recorded on paper and simultaneously digitized (sampling frequency […]) and acquired on the hard drive of the PC.
The application of a micromolar solution of capsaicin causes, on the DRG cells (voltage fixed at −70 mV), an inward cationic current. In order to minimize the desensitization of the receptors, a minimum period of one minute is observed between two applications of capsaicin. After a controlled period (stabilization of the capsaicin response alone), the compounds to be tested are applied alone at a given concentration (concentration of 10 nM or of […]) for a period of 4 to 5 minutes, during which several capsaicin+compound tests are carried out (obtaining of maximum inhibition). The results are expressed as % inhibition of the control capsaicin response.

TRPV1 receptors = target: T2, TRPV1 receptors (Mus musculus, UniProt Q704Y3); assay: Mouse corneal irritation test (capsaicin-induced eye rubbing); type: in vivo; details: compound 500 μM, 2 μl local application to cornea 10 min before capsaicin 160 μM; eye rubs counted over 2 min
T2 construct: from tissue; host or cells: cornea of the living mouse (in vivo)
Method: Mouse Corneal Irritation Test
The irritant nature of capsaicin can be readily assessed at the level of the cornea since this organ is one of the most innervated by C fibres. In this context, according to preliminary experiments, the application of a very small amount of capsaicin (2 μl at a concentration of 160 μM) to the surface of the cornea of an animal results in a certain number of stereotyped behaviors associated with the irritation and that can be readily listed. Among these are: blinking of the eye, rubbing of the instilled eye with the ipsilateral forelimb, rubbing of the face with both forelimbs, scratching of the ipsilateral face with the hind limb. […]
In practice, the product to be tested, prepared at 25 mM in DMSO and diluted for its final use in physiological serum with 10% Tween 80, at the highest concentration of 500 μM, is administered by local application to the surface of the cornea in a volume of 2 μl, 10 minutes before the application of the capsaicin. […] Over the course of a period of observation of 2 minutes following the instillation, the number of times the instilled eye is rubbed by the ipsilateral forelimb is counted for each animal. For each given group, the percentage protection is calculated as follows: P=100−((average number of scratches of the group treated with the compound/average number of scratches of the group treated with the solvent)×100) […]

T1 sequence (O35433 whole entry): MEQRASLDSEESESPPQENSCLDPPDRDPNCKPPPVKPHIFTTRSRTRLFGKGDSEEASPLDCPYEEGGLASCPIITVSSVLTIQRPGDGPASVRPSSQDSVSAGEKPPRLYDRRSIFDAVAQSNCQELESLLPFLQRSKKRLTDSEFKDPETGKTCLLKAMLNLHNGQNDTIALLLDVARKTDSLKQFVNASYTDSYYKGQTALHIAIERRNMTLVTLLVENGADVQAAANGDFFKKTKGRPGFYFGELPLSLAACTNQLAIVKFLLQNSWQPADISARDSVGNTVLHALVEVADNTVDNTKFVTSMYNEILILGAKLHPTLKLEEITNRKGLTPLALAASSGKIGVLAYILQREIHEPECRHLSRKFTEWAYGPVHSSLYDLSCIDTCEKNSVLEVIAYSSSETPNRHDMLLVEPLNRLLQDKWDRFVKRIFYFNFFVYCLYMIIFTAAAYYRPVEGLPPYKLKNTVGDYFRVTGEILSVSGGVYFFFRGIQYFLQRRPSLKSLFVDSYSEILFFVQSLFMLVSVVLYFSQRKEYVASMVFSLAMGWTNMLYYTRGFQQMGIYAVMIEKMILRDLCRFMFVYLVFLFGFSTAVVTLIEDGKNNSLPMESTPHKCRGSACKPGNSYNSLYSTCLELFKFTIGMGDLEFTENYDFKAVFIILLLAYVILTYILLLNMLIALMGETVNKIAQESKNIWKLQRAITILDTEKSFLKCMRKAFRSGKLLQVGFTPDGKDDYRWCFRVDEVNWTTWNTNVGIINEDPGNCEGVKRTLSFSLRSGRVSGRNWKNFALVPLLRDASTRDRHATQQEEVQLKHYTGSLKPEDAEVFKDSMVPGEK
T2 sequence (Q704Y3 whole entry): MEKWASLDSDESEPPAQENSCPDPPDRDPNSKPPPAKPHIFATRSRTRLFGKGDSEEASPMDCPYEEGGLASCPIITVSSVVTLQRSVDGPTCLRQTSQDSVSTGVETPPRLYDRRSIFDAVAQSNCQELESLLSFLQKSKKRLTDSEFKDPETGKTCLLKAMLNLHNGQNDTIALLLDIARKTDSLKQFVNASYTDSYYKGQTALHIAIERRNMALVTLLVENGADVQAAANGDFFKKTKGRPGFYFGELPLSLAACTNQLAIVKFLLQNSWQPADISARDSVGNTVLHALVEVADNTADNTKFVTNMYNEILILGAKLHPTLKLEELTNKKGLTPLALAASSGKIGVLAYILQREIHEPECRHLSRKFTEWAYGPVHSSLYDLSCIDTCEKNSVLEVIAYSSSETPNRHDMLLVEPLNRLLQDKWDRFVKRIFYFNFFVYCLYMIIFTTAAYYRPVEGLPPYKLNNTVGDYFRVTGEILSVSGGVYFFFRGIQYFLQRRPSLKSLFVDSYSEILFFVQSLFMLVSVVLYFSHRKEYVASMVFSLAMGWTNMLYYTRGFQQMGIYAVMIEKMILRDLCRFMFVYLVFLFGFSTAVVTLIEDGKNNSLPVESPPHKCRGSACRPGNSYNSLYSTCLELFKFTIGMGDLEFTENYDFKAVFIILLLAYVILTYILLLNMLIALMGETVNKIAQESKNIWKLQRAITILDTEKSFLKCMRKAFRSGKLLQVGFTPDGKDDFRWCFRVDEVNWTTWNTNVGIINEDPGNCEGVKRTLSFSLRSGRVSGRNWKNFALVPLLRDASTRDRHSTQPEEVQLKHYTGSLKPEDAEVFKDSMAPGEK

| Compound | inhibition at 0.001 µM (TRPV1 receptor) | inhibition at 0.01 µM (TRPV1 receptor) | melting point | % P 500 μM (percentage protection) (TRPV1 receptors) |
| --- | --- | --- | --- | --- |
| O=C(Nc1ccc(N2CCC2)nc1)c1cc2cc(F)ccc2n1Cc1cccc(F)c1 [Compound 4, N-[6-(azetidin-1-yl)pyridin-3-yl]-5-fluoro-1-(3-fluorobenzyl)-1H-indole-2-carboxamide] | 89% | – | – | – |
| O=C(Nc1ccc(N2CCC(O)C2)nc1)c1cc2cc(F)ccc2n1Cc1cccc(F)c1 (stereo not shown) [Compound 7, N-[6-(3-hydroxypyrrolidin-1-yl)pyridin-3-yl]-5-fluoro-1-(3-fluorobenzyl)-1H-indole-2-carboxamide] | – | 85% | – | – |
| O=C(Nc1ccc(N2CCCC2)nc1)c1cc2cc(F)ccc2n1Cc1cccc(F)c1 [Compound 2, N-[6-(pyrrolidin-1-yl)pyridin-3-yl]-5-fluoro-1-(3-fluorobenzyl)-1H-indole-2-carboxamide] | 46% | – | 199 to 201 °C | 72% |
| O=C(Nc1cnc(N2CCCC2)nc1)c1cc2cc(F)ccc2n1Cc1cccc(F)c1 [Compound 21, N-[2-(pyrrolidin-1-yl)pyrimidin-5-yl]-5-fluoro-1-(3-fluorobenzyl)-1H-indole-2-carboxamide] | – | 79% | 220 to 222 °C | – |
